Key:
Assay in all cases: relative viability (nuclei count vs DMSO), 5 days (fraction); higher = more cells survive
MK-8033 + Vorinostat = compound: Cn1cc(-c2cnc3ccc4ccc(CS(=O)(=O)NCc5ccccn5)cc4c(=O)c3c2)cn1 [MK-8033] + O=C(CCCCCCC(=O)Nc1ccccc1)NO [Vorinostat] (partner 1 µM)
Method in brief: (§1)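 Lung cancer cell lines in 1536-well plates got either a single drug or a fixed anchor-drug dose together with five library-drug doses (not always all listed) in √10 steps, by pin tool, on the day after seeding. Nuclei were counted after 5 days, and relative viability is the treated-to-vehicle ratio of nuclei counts. Values are medians of duplicate plates.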

Irinotecan + Tozasertib = compound: CCc1c2c(nc3ccc(OC(=O)N4CCC(N5CCCCC5)CC4)cc13)-c1cc3c(c(=O)n1C2)COC(=O)[C@]3(O)CC [Irinotecan] + Cc1cc(Nc2cc(N3CCN(C)CC3)nc(Sc3ccc(NC(=O)C4CC4)cc3)n2)n[nH]1 [Tozasertib] (partner 0.1 µM)
Method in brief: as §1

RU-SKI 43 + OSI-027 = compound: CC[C@@H](C)CNCC(=O)N1CCC2=C([C@@H]1COC3=CC=CC(=C3)C)C=CS2 [RU-SKI 43] + COc1cccc2cc(-c3nc([C@H]4CC[C@H](C(=O)O)CC4)n4ncnc(N)c34)[nH]c12 [OSI-027] (partner 0.5 µM)
Method in brief: as §1

MK-8033 + Crizotinib = compound: Cn1cc(-c2cnc3ccc4ccc(CS(=O)(=O)NCc5ccccn5)cc4c(=O)c3c2)cn1 [MK-8033] + C[C@@H](Oc1cc(-c2cnn(C3CCNCC3)c2)cnc1N)c1c(Cl)ccc(F)c1Cl [Crizotinib] (partner 1 µM)
Method in brief: as §1

Cell Line	relative viability (MK-8033 + Vorinostat; first compound 0.02 µM)	relative viability (MK-8033 + Vorinostat; first compound 0.06325 µM)	relative viability (MK-8033 + Vorinostat; first compound 0.2 µM)	relative viability (MK-8033 + Vorinostat; first compound 0.6325 µM)	relative viability (MK-8033 + Vorinostat; first compound 2 µM)	relative viability (Irinotecan + Tozasertib; first compound 0.6325 µM)	relative viability (Irinotecan + Tozasertib; first compound 2 µM)	relative viability (Irinotecan + Tozasertib; first compound 6.325 µM)	relative viability (Irinotecan + Tozasertib; first compound 20 µM)	relative viability (RU-SKI 43 + OSI-027; first compound 0.1 µM)	relative viability (RU-SKI 43 + OSI-027; first compound 0.3162 µM)	relative viability (RU-SKI 43 + OSI-027; first compound 1 µM)	relative viability (RU-SKI 43 + OSI-027; first compound 3.162 µM)	relative viability (RU-SKI 43 + OSI-027; first compound 10 µM)	relative viability (MK-8033 + Crizotinib; first compound 0.02 µM)	relative viability (MK-8033 + Crizotinib; first compound 0.2 µM)	relative viability (MK-8033 + Crizotinib; first compound 0.6325 µM)	relative viability (MK-8033 + Crizotinib; first compound 2 µM)	relative viability (MK-8033 + Crizotinib; first compound 0.06325 µM)
EPLC-272H	0.434	0.332	0.38	0.422	0.551	0.165	0.252	0.258	0.25	0.32	0.222	0.278	0.326	0.282	1.09	0.88	0.843	0.866	–
NCI-H2009	0.678	0.689	0.776	0.733	0.676	0.599	0.566	0.334	0.13	0.69	0.599	0.698	0.699	0.601	1.08	0.579	1.11	1.03	1.07
NCI-H2347	0.544	0.537	0.501	0.717	0.597	0.441	0.502	0.546	0.441	0.414	0.414	0.697	0.389	0.328	0.752	0.665	0.618	0.823	0.667
LU99A	0.511	0.495	0.565	0.53	0.433	0.257	0.223	0.153	0.225	0.298	0.282	0.314	0.309	0.317	0.692	0.619	0.491	0.525	0.542
NCI-H1915	0.467	0.438	0.518	0.494	0.49	0.312	0.27	0.192	0.173	0.641	0.706	0.703	0.686	0.614	0.935	0.802	0.885	0.911	0.896
H3255	0.847	–	0.768	0.81	0.742	0.513	0.501	0.375	0.437	0.543	0.598	0.582	0.607	0.584	0.951	0.775	0.625	0.787	0.759
BEN	0.594	0.537	0.602	0.547	0.67	0.378	0.499	0.447	0.34	0.31	0.292	0.306	0.302	0.33	0.895	0.838	0.89	0.773	0.763
NCI-H23	0.678	0.455	0.405	–	0.587	0.24	0.256	0.235	0.218	0.659	0.523	0.782	0.709	0.5	0.446	0.487	0.468	0.552	0.391
NCI-H1944	0.6	0.579	0.625	0.59	0.568	0.222	0.202	0.167	0.135	0.428	0.397	0.503	0.445	0.404	1.12	1.02	1.06	1.11	–
NCI-H441	0.795	0.738	0.823	0.706	0.732	0.497	0.443	0.374	0.295	0.677	0.511	0.665	0.6	0.481	0.753	0.681	0.778	0.691	0.646
NCI-H1437	0.703	0.801	0.732	0.899	0.769	0.339	0.387	0.312	0.218	0.986	0.855	0.865	0.943	0.862	1.04	0.545	0.877	0.918	0.723
HARA	0.549	–	0.553	0.521	0.542	0.0659	0.12	0.107	0.103	0.558	0.492	0.578	0.594	0.295	0.964	0.921	1.08	1.04	1.05
LOU-NH91	0.923	0.638	0.835	0.86	0.92	0.568	0.533	0.358	0.222	0.752	0.642	0.74	0.774	0.728	0.724	0.715	0.732	0.75	–
COR-L 105	0.88	0.891	0.708	0.782	0.547	0.346	0.373	0.458	0.273	0.672	0.817	0.708	0.677	0.665	0.797	0.917	0.861	0.802	0.696
NCI-H838	0.765	0.67	0.674	0.736	0.734	0.283	0.491	0.23	0.242	0.431	0.264	0.355	0.417	0.38	0.807	0.884	0.804	0.787	0.757
NCI-H1975	0.713	0.669	0.634	0.695	0.752	0.929	0.726	0.354	0.199	0.749	0.829	1.02	0.779	0.604	0.896	0.934	1.06	0.952	0.924
SK-MES-1	1.2	0.987	1.03	1.04	1.03	0.659	0.473	0.248	0.151	0.491	0.65	0.737	0.791	0.569	0.96	0.919	1.01	0.992	0.959

— the supplement of paper PMC10307832
